What was measured:
[1] = Solubility in cosmetic oils from saturated mixtures (UPLC); type: physicochemical; settings: 7 days at room temperature (22° C.); for Solubility in cosmetic oils: Cetiol B: Cetiol B (dibutyl adipate); for Solubility in cosmetic oils: DUB DIS: DUB DIS (diisopropyl sebacate); for Solubility in cosmetic oils: Finsolv EB: Finsolv EB (ethylhexyl benzoate)
Experimental: H2O+0.02% TFA (A phase) and MeCN+0.02% TFA (B phase) were used as eluents, with a flow of 0.5 mL/min.
The solubility of selected compounds was tested in the cosmetic oils Cetiol B (INCI name: dibutyl adipate from BASF Personal Care), DUB DIS (INCI name: diisopropyl sebacate from Stearinerie Dubois) and Finsolv EB ((INCI name: ethylhexyl benzoate from Innospec Performance Chemicals).
Samples of about 1 mg of the compounds to be tested were exactly weighted and dissolved in 90% MeCN(aq) to provide 0.1% (1000 ppm) w/v stock solutions. Aliquots of the stock solutions were diluted with 90% MeCN(aq) to provide 10, 100 and 250 ppm diluted solutions, which were tested by UPLC.
For each compound to be tested about 20 mg material were weighted in three microcentrifuge tubes and to each tube about 150 mg of one cosmetic oil were added, as reported in Table 5 below.
After mixing on a Vortex mixer for 5 min, the respective samples were mixed on a waving platform shaker (20 cycles/min) for 7 days at room temperature (22° C.). After that time, the tubes were centrifuged for 5 min at 12000 rpm, 10 μL samples of the supernatant were diluted to 1.00 mL with MeOH, 100 μL of these solutions were diluted to 1.00 mL with 90% MeCN(aq) and subsequently analyzed by UPLC. The compound concentration in each solution was calculated using the respective calibration curve. From the compound concentration in the diluted solutions the concentrations of the respective parent mixtures was calculated accordingly.

11β-HSD1 = 11β-HSD1 (Homo sapiens, UniProt P28845); experiment: Human keratinocytes assay: 11β-HSD1 activity (cortisone to cortisol); type: cell-based; settings: 48 h
Experimental: Cell Culture: Primary human skin keratinocytes obtained from CelINTec advanced Cell Systems were maintained in CnT-PR medium at 37° C. in a humidified 5% CO2-air atmosphere. Cells were subcultured before reaching confluence.
Assessment of 11β-HSD1 activity: Human primary keratinocytes were pre-cultured in complete culture media (CnT-PR, CelINTec) to 90% of confluence. Subsequently cells were washed twice with PBS-buffer to remove remaining corticosteroids and media were exchanged to custom made hydrocortisone-free media.
Calculation: % remaining 11β-HSD1 activity=(cortisol-level with inhibitor/cortisol-level without inhibitor)*100%

[2] = system: Human skin from abdominal plastic surgery; experiment: Ex vivo: total dermal collagen after cortisone and cortisone/inhibitor treatment; type: cell-based; settings: cortisone alone 0.1 μM in DMSO, day 6; untreated set to 100%
Experimental: Human skin from abdominal plastic surgery was used. The skin samples were cut in pieces of ˜8×3 mm (ø×thickness) and cultured up to day 6 in an air-liquid interface in a perforated ring of stainless steel in contact with a culture medium (modified Williams' E medium), while renewing the culture medium on day 3. Six skin specimens were used for each test sample. Each test sample (4 μl) was applied topically on top of each piece after cleaning of the surface with a cotton pad, which was subsequently covered with a 6 ø mm delivery membrane, this procedure was repeated daily. After 6 days skin sections were stained with Picrosirius Red histochemical staining, that dyes collagen fibers in purple-red. The papillary dermis was selected for the analysis. The different colors of the pictures were separated by using a deconvolution matrix. After deconvolution only pink-reddish images are used. Within these images the evaluation of dermal collagen was performed by estimating both color intensity and distribution with IMAGE J (NIH) analysis software. Two slides of each skin sample were processed by image acquisition and related analysis (i.e. 12 images for each treatment).

11β-HSD1, sequence (P28845 whole entry): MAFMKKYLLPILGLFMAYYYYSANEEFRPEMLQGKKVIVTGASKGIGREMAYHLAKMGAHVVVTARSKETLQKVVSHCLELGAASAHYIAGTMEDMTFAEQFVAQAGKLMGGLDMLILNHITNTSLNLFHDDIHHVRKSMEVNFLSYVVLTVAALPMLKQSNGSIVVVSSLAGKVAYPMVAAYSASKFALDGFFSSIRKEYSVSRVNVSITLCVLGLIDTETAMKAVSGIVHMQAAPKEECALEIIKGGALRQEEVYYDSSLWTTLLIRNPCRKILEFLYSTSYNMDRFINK

Compound | Solubility in cosmetic oils: Cetiol B [1] [%] | Solubility in cosmetic oils: DUB DIS [1] [%] | Solubility in cosmetic oils: Finsolv EB [1] [%] | remaining activity at 0.001 µM (11β-HSD1) [%] | remaining activity at 0.00316 µM (11β-HSD1) [%] | remaining activity at 0.01 µM (11β-HSD1) [%] | remaining activity at 0.03162 µM (11β-HSD1) [%] | remaining activity at 0.1 µM (11β-HSD1) [%] | Dermal collagen [2] [%] | remaining activity at 40 pM (11β-HSD1) [%] | remaining activity at 0.0001 µM (11β-HSD1) [%] | remaining activity at 0.00032 µM (11β-HSD1) [%]
Cc1ccc(-c2cccc(C(=O)N3CCCCCC3)c2)cc1 [IV-c, azepan-1-yl(4′-methyl-[1,1′-biphenyl]-3-yl)methanone] | 3.3 | 2.6 | 4.0 | 70 | 42 | 23 | 9 | 3 |  |  |  | 
CC1CCN(C(=O)c2cccc(-c3cccc(C(N)=O)c3)c2)CC1 [II-k, 3′-(4-methylpiperidine-1-carbonyl)-[1,1′-biphenyl]-3-carboxamide] | 3.0 | 2.4 | 3.4 |  |  |  |  |  |  |  |  | 
C[C@]12CCC(=O)C=C1CC[C@@H]1[C@@H]2C(=O)C[C@@]2(C)[C@H]1CC[C@]2(O)C(=O)CO [cortisone, reference compound] |  |  |  |  |  |  |  |  | 77 |  |  | 
Cc1ccc(-c2cccc(C(=O)N3CCCC(C)(C)C3)c2)cc1F [II-h, (3,3-dimethylpiperidin-1-yl)(3′-fluoro-4′-methyl-[1,1′-biphenyl]-3-yl)methanone] |  |  |  | 10 |  |  |  |  |  | 74 | 45 | 24
Cc1ccc(-c2cccc(C(=O)N3CCOC(C)(C)C3)c2)cc1F [III-a, (2,2-dimethylmorpholino) (3′-fluoro-4′-methyl-[1,1′-biphenyl]-3-yl)methanone] |  |  |  | 55 | 37 | 11 | 3 | 0 |  |  |  | 70
Cc1ccc(-c2cccc(C(=O)N3CC(C)OC(C)C3)c2)cc1F (stereo not drawn) [III-b, (2,6-dimethylmorpholino) (3′-fluoro-4′-methyl-[1,1′-biphenyl]-3-yl)methanone] | 10.0 | 4.3 | 2.6 |  |  |  |  |  |  |  |  | 
CC1CCN(C(=O)c2cccc(-c3ccccc3Cl)c2)CC1 [II-e, (2′-chloro-[1,1′-biphenyl]-3-yl)(4-methylpiperidin-1-yl)methanone] |  |  |  | 85 | 70 | 50 | 21 | 4 |  |  |  | 

— patent publication US10550097B2, “Selective 11-beta-hydroxysteroid dehydrogenase type 1 inhibitors” (DSM IP ASSETS B.V., priority 2015, dated 2020)
